The pKa is the negative logarithm of the acid dissociation constant. A higher pKa goes with a group that holds its proton tightly.

The nature of data set [1]: pKa of nanoparticle compositions. The following applies: Table 1c. The class given is physicochemical.
The nature of data set [2]: Lipid purity change after storage in EtOH for 96 h at 25 or 37 °C. The class given is physicochemical. The method, then:
Nanoparticle compositions including a therapeutic and/or prophylactic agent can be optimized according to the selection of a compound according to one of formulae (I), (Ia1)-(Ia10), (Ib), (Ic), (Id), (Id1)-(Id10), (Ie), (Ie1)-(Ie6), (II), (IIa), (III), and (IIIa), the selection of additional lipids, the amount of each lipid in the lipid component, and the wt:wt ratio of the lipid component to the therapeutic and/or prophylactic agent, as described herein. Initial studies were performed to compare the delivery efficiency of nanoparticle compositions including various compounds according to one of formulae (I), (Ia1)-(Ia10), (Ib), (Ic), (Id), (Id1)-(Id10), (Ie), (Ie1)-(Ie6), (II), (IIa), (III), and (IIIa). The cationic lipid MC3 is a current standard in the art. Also determined was the stability of nanoparticles of the disclosure, i.e., the purity after storage in EtOH for 96h at 25° C. or 37° C. (Table Id).

Data set [3] is described as follows: Encapsulation efficiency of RNA (QUANT-IT RIBOGREEN RNA assay). The data set is classed as physicochemical. The following applies: Table 1c; nanoparticle compositions. In outline: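 Samples diluted to about 5 μg/mL RNA in TE buffer pH 7.5, treated with buffer or 2% Triton X-100 for 15 min at 37° C, then stained with RiboGreen (1:100). Fluorescence at about 480/520 nm, blank-subtracted; free RNA fraction is intact over Triton-disrupted signal.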

Data set [4] can be described thus: Lipid clearance: % dose remaining in liver of CD-1 mice. The class given is in vivo. The following applies: intravenous, 0.5 mg/kg, CD-1 mouse, Table 8a. In outline:
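Nanoparticle compositions containing the test compound were dosed to CD-1 mice at 0.5 mpk, and hEPO expression was measured. Clearance data were collected from the same compositions.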

Data set [5] is described as follows: Particle size and polydispersity index of nanoparticle compositions (Zetasizer Nano ZS). The class given is physicochemical. The conditions noted are these: Table 1c; nanoparticle compositions. As to the method: A Zetasizer Nano ZS (Malvem Instruments Ltd, Malvem, Worcestershire, UK) can be used to determine the particle size, the polydispersity index (PDI) and the zeta potential of the nanoparticle compositions in 1×PBS in determining particle size and 15 mM PBS in determining zeta potential.

The next data set has as its system hEPO expression. As to the kind of experiment: hEPO expression in CD-1 mice compared with MC3. The conditions noted are these: intravenous, 0.5 mpk, Table 7e. The data set is classed as in vivo. From the text: In contrast, hEPO expression in rats induced by administration of a nanoparticle composition including a compound according to one of formulae (I), (Ia1)-(Ia6), (Ib), (II), (IIa), (III), and (IIIa) was substantially […] than that measured for MC3. […] Tables 7c and 7d show additional protein expressions and clearance data from compositions with various compounds disclosed herein as compared to with MC3. Tables 7e, 7f and 7g show hEPO expression data in CD-1 mice at a dose of 0.5 mpk.

For the compound `CCCCCCCCCCCCCCN(CCCOC(=O)CCCCCCCCC)CC(=O)N1CCN(C(=O)CN(CCCCCCCCC)CCN(CCCCCCCCC)CCCCCCCCC)CC1` [Compound 89, 3-((2-(4-(N-(2-(Dinonylamino)ethyl)-N-nonylglycyl)piperazin-1-yl)-2-oxoethyl)(tetradecyl)amino)propyl decanoate], the pKa in data set [1] is listed as 6.94. For the same compound, in data set [2], the “Lipid % change purity in EtOH, 25° C., 96 h” value was determined as 2.3% and the “Lipid % change purity in EtOH, 37° C., 96 h” value worked out at 3.9%. In addition, the “EE (%)” value in data set [3] was determined as 97.6%. In addition, in data set [4], the “% Dose Remaining 24 hr” value is 0.05%. For the same compound, in data set [5], the PDI was found to be 0.20 and the “Size (nm)” value is listed as 80.1 nm. For the same compound, the “AUC (p/s*h) CD-1 mice 0.5 mpk” value in the data set with hEPO expression is 1.36E+08 p/s*h.

`CCCCCCCCCCCCCCN(CCCCCCCC(=O)OCCCCC)CC(=O)N1CCN(C(=O)CN(CCCCCCCCC)CCN(CCCCCCCCC)CCCCCCCCC)CC1` [Compound 90, Pentyl 8-((2-(4-(N-(2-(dinonylamino)ethyl)-N-nonylglycyl)piperazin-1-yl)-2-oxoethyl)(tetradecyl)amino)octanoate] yielded a pKa in data set [1] of 6.83. In data set [2], the “Lipid % change purity in EtOH, 25° C., 96 h” value is recorded as 0.1% and the “Lipid % change purity in EtOH, 37° C., 96 h” value worked out at 9.6%. The “EE (%)” value in data set [3] came to 98.4%. For the same compound, the “% Dose Remaining 24 hr” value in data set [4] is listed as 3.93%. In addition, in data set [5], the PDI is listed as 0.19 and the “Size (nm)” value was found to be 81.5 nm. Also, the “AUC (p/s*h) CD-1 mice 0.5 mpk” value with hEPO expression stood at 2.08E+07 p/s*h.

As to `CCCCCCCCCCCCCCN(CCCCCC(=O)OCCCCCCC)CC(=O)N1CCN(C(=O)CN(CCCCCCCCC)CCN(CCCCCCCCC)CCCCCCCCC)CC1` [Compound 91, Heptyl 6-((2-(4-(N-(2-(dinonylamino)ethyl)-N-nonylglycyl)piperazin-1-yl)-2-oxoethyl)(tetradecyl)amino)hexanoate], the pKa in data set [1] stood at 6.74. For the same compound, in data set [2], the “Lipid % change purity in EtOH, 25° C., 96 h” value is given as 1% and the “Lipid % change purity in EtOH, 37° C., 96 h” value was 2.3%. Further, in data set [3], the “EE (%)” value stood at 97.6%. Further, in data set [4], the “% Dose Remaining 24 hr” value stood at 9.19%. In data set [5], the PDI was 0.21 and the “Size (nm)” value is 82.9 nm. In the data set with hEPO expression, the “AUC (p/s*h) CD-1 mice 0.5 mpk” value is recorded as 3.22E+07 p/s*h.

Take `CCCCCCCCCCCCCCN(CCCOC(=O)CCCCCCCCC)CCC1CCN(C(=O)CN(CCCCCCCCC)CCN(CCCCCCCCC)CCCCCCCCC)CC1` [Compound 92, 3-((2-(1-(N-(2-(Dinonylamino)ethyl)-N-nonylglycyl)piperidin-4-yl)ethyl)(tetradecyl)amino)propyl decanoate]: the pKa in data set [1] came to 6.53. Also, in data set [2], the “Lipid % change purity in EtOH, 25° C., 96 h” value is recorded as 4.5% and the “Lipid % change purity in EtOH, 37° C., 96 h” value is 9%. In addition, the “EE (%)” value in data set [3] came out at 97.1%. The “% Dose Remaining 24 hr” value in data set [4] came out at 0.10%. In data set [5], the PDI turned out to be 0.17 and the “Size (nm)” value is listed as 73.8 nm. Besides, the “AUC (p/s*h) CD-1 mice 0.5 mpk” value in the data set on hEPO expression turned out to be 8.25E+07 p/s*h.

In turn, `CCCCCCCCCCCCCCN(CCCCCCCC(=O)OCCCCC)CCC1CCN(C(=O)CN(CCCCCCCCC)CCN(CCCCCCCCC)CCCCCCCCC)CC1` [Compound 93, Pentyl 8-((2-(1-(N-(2-(dinonylamino)ethyl)-N-nonylglycyl)piperidin-4-yl)ethyl)(tetradecyl)amino)octanoate] came in with a pKa in data set [1] of 6.6. In data set [2], the “Lipid % change purity in EtOH, 25° C., 96 h” value was 0% and the “Lipid % change purity in EtOH, 37° C., 96 h” value is given as 2.2%. Moreover, in data set [3], the “EE (%)” value came out at 97.7%. For the same compound, the “% Dose Remaining 24 hr” value in data set [4] is listed as 10.37%. For the same compound, in data set [5], the PDI came out at 0.17 and the “Size (nm)” value stood at 75.6 nm. In addition, the “AUC (p/s*h) CD-1 mice 0.5 mpk” value in the data set with hEPO expression turned out to be 8.63E+07 p/s*h.

In data set [1], `CCCCCCCCCCCCCCN(CCCCCC(=O)OCCCCCCC)CCC1CCN(C(=O)CN(CCCCCCCCC)CCN(CCCCCCCCC)CCCCCCCCC)CC1` [Compound 94, Heptyl 6-((2-(1-(N-(2-(dinonylamino)ethyl)-N-nonylglycyl)piperidin-4-yl)ethyl)(tetradecyl)amino)hexanoate] showed a pKa of 6.65. Further, in data set [2], the “Lipid % change purity in EtOH, 25° C., 96 h” value is 5.9% and the “Lipid % change purity in EtOH, 37° C., 96 h” value was determined as 8.3%. The “EE (%)” value in data set [3] turned out to be 98.4%. Besides, the “% Dose Remaining 24 hr” value in data set [4] came out at 18.52%. In addition, in data set [5], the PDI is 0.20 and the “Size (nm)” value is listed as 74.6 nm. Besides, the “AUC (p/s*h) CD-1 mice 0.5 mpk” value in the data set with hEPO expression turned out to be 2.39E+07 p/s*h.

`CCCCCCCCCN(CCCCCCCCC)CCN(CCCCCCCCC)CC(=O)N1CCC(CCOC(=O)CN(CCCCCCCCC)CCCCCCCCC)C1` (stereo not drawn) [Compound 103, 2-(1-(N-(2-(Dinonylamino)ethyl)-N-nonylglycyl)pyrrolidin-3-yl)ethyl Dinonylglycinate] displayed a pKa in data set [1] of 7.25. In data set [2], the “Lipid % change purity in EtOH, 25° C., 96 h” value is 1.5% and the “Lipid % change purity in EtOH, 37° C., 96 h” value is 5.7%. The “EE (%)” value in data set [3] was 99.0%. Also, in data set [4], the “% Dose Remaining 24 hr” value is 71.45%. For the same compound, in data set [5], the PDI came out at 0.17 and the “Size (nm)” value is recorded as 76.9 nm. The “AUC (p/s*h) CD-1 mice 0.5 mpk” value with hEPO expression worked out at 1.82E+08 p/s*h.

In the case of `CC/C=C\COC(=O)CCCN(CCCCCCCCC)CC(=O)N1CCN(C(=O)CN(CCCCCCCCC)CCN(CCCCCCCCC)CCCCCCCCC)CC1` [Compound 107, (Z)-Pent-2-en-1-yl 4-((2-(4-(N-(2-(dinonylamino)ethyl)-N-nonylglycyl)piperazin-1-yl)-2-oxoethyl)(nonyl)amino)butanoate], the pKa in data set [1] amounted to 6.99. For the same compound, in data set [2], the “Lipid % change purity in EtOH, 25° C., 96 h” value is listed as 4% and the “Lipid % change purity in EtOH, 37° C., 96 h” value was 3.6%. In data set [3], the “EE (%)” value is on record as 96.6%. Further, in data set [4], the “% Dose Remaining 24 hr” value came to 38.15%. In data set [5], the PDI is 0.19 and the “Size (nm)” value amounted to 80.6 nm. Also, the “AUC (p/s*h) CD-1 mice 0.5 mpk” value in the data set on hEPO expression is recorded as 1.76E+08 p/s*h.

In data set [1], `CCCCCCCCCN(CCCCCCCCC)CCN(CCCCCCCCC)CC(=O)N1CCN(C(=O)CN(CCCCCCCCC)CCCCCOC(=O)OC)CC1` [Compound 109, 5-((2-(4-(N-(2-(Dinonylamino)ethyl)-N-nonylglycyl)piperazin-1-yl)-2-oxoethyl)(nonyl)amino)pentyl methyl carbonate] showed a pKa of 7.27. Besides, in data set [2], the “Lipid % change purity in EtOH, 25° C., 96 h” value is recorded as 0% and the “Lipid % change purity in EtOH, 37° C., 96 h” value is listed as 4.1%. For the same compound, the “EE (%)” value in data set [3] amounted to 95.0%. Further, in data set [4], the “% Dose Remaining 24 hr” value turned out to be 0.54%. Moreover, in data set [5], the PDI is reported as 0.16 and the “Size (nm)” value came out at 75.0 nm. Moreover, the “AUC (p/s*h) CD-1 mice 0.5 mpk” value in the data set with hEPO expression is on record as 5.56E+07 p/s*h.

In data set [1], `CCCCCCCCCN(CCCCCCCCC)CC(=O)N1CCN(C(=O)CN(CCCCCCCCC)CCCCCCCCC)CC1` [Compound 112, 1,1′-(piperazine-1,4-diyl)bis(2-(dinonylamino)ethan-1-one)] came in with a pKa of 6.14. In data set [3], the “EE (%)” value came out at 97.1%. For the same compound, in data set [4], the “% Dose Remaining 24 hr” value is 46.37%. In data set [5], the PDI was 0.22 and the “Size (nm)” value is recorded as 73.5 nm. For the same compound, the “AUC (p/s*h) CD-1 mice 0.5 mpk” value in the data set with hEPO expression amounted to 1.78E+04 p/s*h.

In data set [1], `CCCCCC/C=C\COC(=O)CCCN(CCCCCCCCCCCCCC)CC(=O)N1CCN(C(=O)CN(CCCCCCCCC)CCN(CCCCCCCCC)CCCCCCCCC)CC1` [Compound 118, (Z)-Non-2-en-1-yl 4-((2-(4-(N-(2-(dinonylamino)ethyl)-N-nonylglycyl)piperazin-1-yl)-2-oxoethyl)(tetradecyl)amino)butanoate] returned a pKa of 6.7. Further, the “EE (%)” value in data set [3] was found to be 97.8%. In data set [4], the “% Dose Remaining 24 hr” value was 55.92%. In data set [5], the PDI is 0.20 and the “Size (nm)” value came out at 82.3 nm. Further, the “AUC (p/s*h) CD-1 mice 0.5 mpk” value with hEPO expression is on record as 1.64E+08 p/s*h.

For `CCCCCCCCCN(CCCCCCCCC)CCN(CCCCCCCCC)CC(=O)OCCOC(=O)CN(CCCCCCCCC)CCCCCCCCC` [Compound 150, 2-((N-(2-(Dinonylamino)ethyl)-N-nonylglycyl)oxy)ethyl dinonylglycinate], the pKa in data set [1] was determined as 5.10. Besides, the “% Dose Remaining 24 hr” value in data set [4] is 57.89%. Besides, the “AUC (p/s*h) CD-1 mice 0.5 mpk” value in the data set with hEPO expression was found to be 2.29E+05 p/s*h.
